Source: publication PMC2773450 (Analytical biochemistry, 2008)

Target: T1, O^6-alkylguanine—DNA alkyltransferase (AGT) (Homo sapiens, UniProt P16455)
T1 sequence (P16455 1-207): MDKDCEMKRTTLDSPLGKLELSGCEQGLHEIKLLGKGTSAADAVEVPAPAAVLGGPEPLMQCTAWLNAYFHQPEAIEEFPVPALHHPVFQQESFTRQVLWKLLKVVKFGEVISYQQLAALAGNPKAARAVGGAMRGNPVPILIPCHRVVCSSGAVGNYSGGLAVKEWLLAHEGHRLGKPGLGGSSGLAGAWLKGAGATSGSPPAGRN

## O^6-(thiophenemethyl)guanine [TMG]
  IC50: 23 nM
